Data published in patent publication US4636464A (priority 1985, dated 1987).

Legend:
Type in all cases: biochemical, Coriolus versicolor
pyranose oxidase [1] = biological target: T1, pyranose oxidase (Trametes versicolor, UniProt P79076); test: biochemical; parameters: activity: dose or concentration left out as unconfirmed; details: for activity: pH 7, read-out: Relative Activity (%); for activity at 100000 µM: pH 7, read-out: Relative Activity (%); for Substrate specificity in words: same test as Table 1
T1 construct: made in house; not recombinant
Protocol: Said coloring reagent is prepared by adding 0.1M tris-hydrochloride buffer (pH 7.0) containing 10 m mol/l 4-aminoantipyrine(hereinafter referred to as 4AA) and 10 m mol/l phenol, to peroxidase in a concentration of 2000 U per 100 ml of the buffer. The increasing rate of the absorbancy at 500 nm is automatically measured on a spectrophotometer. The molecular extinction coefficient of a quinoneimine pigment formed under these conditions is defined as 5.3×10^3, and one unit of the enzymatic activity is also defined as the amount of the enzyme that produces one μ mole of hydrogen peroxide per minute at a temperature of 37° C. and at a pH of 7.0.
The results are expressed as percentages of the glucose reaction.

pyranose oxidase [2] = biological target: T1, pyranose oxidase; test: Electron acceptor test (Thunberg tube, absorbancy change)
Protocol: In this phase, 1.4 ml of 50 mM tris-hydrochloride buffer (pH 7.0), 0.1 ml of 250 mU enzyme solution and 0.5 ml of electron acceptor solutions having various concentrations as indicated in Table 2 are put into a cell with Thunberg tube. […] The change in absorbancy per minute from 30 minutes to 90 minutes after the mixturing is determined and the activities of the electron acceptors are expressed as relative activity.

pyranose oxidase [3] = biological target: T1, pyranose oxidase; details: for Percent Inhibition (%): 0.2 ml of 18.5 mM inhibitor solution, 280 mU pyranose oxidase, pH 7.0, 37° C.
Description: The inhibitor is studied in the same manner as that adopted in determination of the optimum pH.

[4] = electron acceptor solution 0.1 mM, pH 7.0, dissolved oxygen removed
[5] = electron acceptor solution 0.1 mM, pH 7.0, dissolved oxygen removed, read-out: Relative Activity (%)

## OC[C@H]1O[C@H](O[C@H]2[C@H](O)[C@@H](O)[C@H](O)O[C@@H]2CO)[C@H](O)[C@@H](O)[C@@H]1O [maltose]
Pyranose oxidase [1]
  activity: 0%

## Cytochrome C
Pyranose oxidase [2]
  Suitability as electron acceptor in words: may be made electron acceptor
Pyranose oxidase [2]; [4]
  Relative Activity (%): 0.33%

## O=C1C(Cl)=CC(=Nc2ccc(O)cc2)C=C1Cl [2,6-Dichlorophenolindophenol]
Pyranose oxidase [2]
  Suitability as electron acceptor in words: may be made electron acceptor
Pyranose oxidase [2]; electron acceptor solution 0.04 mM, pH 7.0, dissolved oxygen removed, read-out: Relative Activity (%)
  activity at 40 µM (stock): 2.5%

## N[C@H]1C(O)O[C@H](CO)[C@@H](O)[C@@H]1O (stereo partly shown) [glucosamine]
Pyranose oxidase [1]
  activity: 0%

## NC(=O)c1ccc[n+]([C@@H]2O[C@H](COP(=O)([O-])OP(=O)(O)OC[C@H]3O[C@@H](n4cnc5c(N)ncnc54)[C@H](O)[C@@H]3O)[C@@H](O)[C@H]2O)c1 [Nicotinamide-adenine dinucleotide]
Pyranose oxidase [2]; [5]
  activity at 100 µM (stock): 0%

## O=C(CO)[C@H](O)[C@@H](O)[C@H](O)CO [sorbose]
Pyranose oxidase [1]
  activity at 100000 µM: 3.4%
  Substrate specificity in words: acts upon

## O=O [Oxygen]
Pyranose oxidase [2]
  Suitability as electron acceptor in words: optimum electron acceptor
Pyranose oxidase [2]; electron acceptor: dissolved oxygen, pH 7.0, glucose substrate
  Relative Activity (%): 100%

## O=C(O)c1cc[c]([Hg][Cl])cc1 [p-chloromercuribenzoate]
Pyranose oxidase [3]
  Inhibition of the enzymatic action in words: inhibited
  Percent Inhibition (%): 50.0%

## O=S(=O)([O-])[O-].[Mg+2] [magnesium sulfate]
Pyranose oxidase [3]
  Percent Inhibition (%): 0%

## NC(=O)c1ccc[n+]([C@@H]2O[C@H](COP(=O)([O-])OP(=O)(O)OC[C@H]3O[C@@H](n4cnc5c(N)ncnc54)[C@H](OP(=O)(O)O)[C@@H]3O)[C@@H](O)[C@H]2O)c1 [Nicotinamide-adenine dinucleotide phosphate]
Pyranose oxidase [2]; [5]
  activity at 100 µM (stock): 0%

## OC[C@H]1O[C@@H](O[C@H]2[C@H](O)[C@@H](O)C(O)O[C@@H]2CO)[C@H](O)[C@@H](O)[C@H]1O (stereo partly shown) [lactose]
Pyranose oxidase [1]
  activity: 0%

## Nitroprusside-tetrazolium
Pyranose oxidase [2]; [4]
  Relative Activity (%): 0%

## OC[C@@H](O)[C@@H](O)[C@H](O)[C@H](O)CO [mannitol]
Pyranose oxidase [1]
  activity: 0%

## O=S(=O)([O-])[O-].[Cu+2] [copper sulfate]
Pyranose oxidase [3]
  Inhibition of the enzymatic action in words: inhibited
  Percent Inhibition (%): 35.7%

## O=S(=O)([O-])[O-].[Co+2] [cobalt sulfate]
Pyranose oxidase [3]
  Percent Inhibition (%): 13.3%

## O=C(O)[C@H](O)[C@@H](O)[C@H](O)[C@H](O)CO [gluconic acid]
Pyranose oxidase [1]
  activity: 0%

## OC1OC[C@@H](O)[C@H](O)[C@H]1O (stereo partly shown) [xylose]
Pyranose oxidase [1]
  activity: 2.6%
  Substrate specificity in words: acts upon

## O=[N+]([O-])[O-].[Ag+] [silver nitrate]
Pyranose oxidase [3]
  Inhibition of the enzymatic action in words: inhibited
  Percent Inhibition (%): 53.3%

## O=C(CO)[C@@H](O)[C@H](O)[C@H](O)CO [fructose]
Pyranose oxidase [1]
  activity at 100000 µM: 0%

## OC[C@H]1O[C@H](O[C@H]2O[C@H](CO)[C@@H](O)[C@H](O)[C@H]2O)[C@H](O)[C@@H](O)[C@@H]1O [trehalose]
Pyranose oxidase [1]
  activity: 0%
